Test results published in patent US4281121A, “1,3,4-Thiadiazole-2-carboxylic acid derivatives, process for making the same and fungicidal and nematocidal compositions containing same” (Schering Aktiengesellschaft, priority 1978, dated 1981).

Each compound was assayed on Plasmopara viticola (assay: Prophylactic leaf treatment of grapevines in the hothouse against Plasmopara viticola). Settings: concentration of active agent 0.025 (unit not given).
Assay type: in vivo
Procedure, shortened: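 Grapevines (5–8 leaves) sprayed to runoff with compound as 20% spray powder, then after drying inoculated on leaf undersides with sporangial suspension (~20,000/ml). Incubated at 22–24 °C, saturated humidity, 3–4 days normal humidity (30–70%), then one day saturated; activity from mean % infested leaf area per treatment.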

SMILES | % activity [%]
CCCCCCS(=O)(=O)c1nnc(C#N)s1 [5-hexylsulfonyl-1,3,4-thiadiazole-2-carbonitrile] | 90
CCCCCCS(=O)(=O)c1nnc(C(N)=O)s1 [5-hexylsulfonyl-1,3,4-thiadiazole-2-carboxamide] | 90
CCNC(=O)c1nnc([S+](C)[O-])s1 (centres unmarked) [5-methylsulfinyl-1,3,4-thiadiazole-2-carboxylic acid-ethylamide] | 96
CCCCCS(=O)(=O)c1nnc(C#N)s1 [5-pentylsulfonyl-1,3,4-thiadiazole-2-carbonitrile] | 90

The compounds below were run on Helminthosporium gram (assay: not given). Settings: 10 g active agent per 100 kg; about 5 weeks.

SMILES | % activity [%]
CCNC(=O)c1nnc([S+](C)[O-])s1 (centres unmarked) [5-methylsulfinyl-1,3,4-thiadiazole-2-carboxylic acid-ethylamide] | 98

Same assay, conditions: 20 g active agent per 100 kg; about 5 weeks

SMILES | % activity [%]
CCNC(=O)c1nnc([S+](C)[O-])s1 (centres unmarked) [5-methylsulfinyl-1,3,4-thiadiazole-2-carboxylic acid-ethylamide] | 99

Same assay, conditions: 50 g active agent per 100 kg; about 5 weeks

SMILES | % activity [%]
CCNC(=O)c1nnc([S+](C)[O-])s1 (centres unmarked) [5-methylsulfinyl-1,3,4-thiadiazole-2-carboxylic acid-ethylamide] | 100

These compounds were tested on Piricularia oryzae (assay: not given). Settings: concentration of active agent 0.1 (percentages); 5 days.
Assay type: in vivo

SMILES | % activity [%]
CCNC(=O)c1nnc([S+](C)[O-])s1 (centres unmarked) [5-methylsulfinyl-1,3,4-thiadiazole-2-carboxylic acid-ethylamide] | 90

These compounds were tested on Fusarium avenaceum (assay: Threshold concentration test in case of Fusarium avenaceum (infested soil, garden peas)). Settings: 25 mg/l soil; 20 grains per dish; 18 days at 20-24° C.
Assay type: in vivo
Procedure, shortened: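 Soil heavily infested with Fusarium avenaceum was mixed uniformly with a 20% powder formulation of active agent, then sown immediately with 20 garden pea seeds ('Wunder von Kelvedon') per dish. After 18 days in a greenhouse at 20° to 24° C., sound plants were counted and roots scored on a 1–4 scale.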

SMILES | number of sound peas
CCCCCCS(=O)(=O)c1nnc(C#N)s1 [5-hexylsulfonyl-1,3,4-thiadiazole-2-carbonitrile] | 19
CCCCCCS(=O)(=O)c1nnc(C(N)=O)s1 [5-hexylsulfonyl-1,3,4-thiadiazole-2-carboxamide] | 7
CCCCCS(=O)(=O)c1nnc(C#N)s1 [5-pentylsulfonyl-1,3,4-thiadiazole-2-carbonitrile] | 20

Same assay, conditions: 25 mg/l soil; 18 days

SMILES | root evaluation (1-4)
CCCCCCS(=O)(=O)c1nnc(C#N)s1 [5-hexylsulfonyl-1,3,4-thiadiazole-2-carbonitrile] | 4
CCCCCCS(=O)(=O)c1nnc(C(N)=O)s1 [5-hexylsulfonyl-1,3,4-thiadiazole-2-carboxamide] | 1
CCCCCS(=O)(=O)c1nnc(C#N)s1 [5-pentylsulfonyl-1,3,4-thiadiazole-2-carbonitrile] | 4

Same assay, conditions: 50 mg/l soil; 20 grains per dish; 18 days at 20-24° C.

SMILES | number of sound peas
CCCCCCS(=O)(=O)c1nnc(C#N)s1 [5-hexylsulfonyl-1,3,4-thiadiazole-2-carbonitrile] | 19
CCCCCCS(=O)(=O)c1nnc(C(N)=O)s1 [5-hexylsulfonyl-1,3,4-thiadiazole-2-carboxamide] | 12
CCCCCS(=O)(=O)c1nnc(C#N)s1 [5-pentylsulfonyl-1,3,4-thiadiazole-2-carbonitrile] | 20

Same assay, conditions: 50 mg/l soil; 18 days

SMILES | root evaluation (1-4)
CCCCCCS(=O)(=O)c1nnc(C#N)s1 [5-hexylsulfonyl-1,3,4-thiadiazole-2-carbonitrile] | 4
CCCCCCS(=O)(=O)c1nnc(C(N)=O)s1 [5-hexylsulfonyl-1,3,4-thiadiazole-2-carboxamide] | 2
CCCCCS(=O)(=O)c1nnc(C#N)s1 [5-pentylsulfonyl-1,3,4-thiadiazole-2-carbonitrile] | 4

Same assay, conditions: 100 mg/l soil; 20 grains per dish; 18 days at 20-24° C.

SMILES | number of sound peas
CCCCCCS(=O)(=O)c1nnc(C#N)s1 [5-hexylsulfonyl-1,3,4-thiadiazole-2-carbonitrile] | 19
CCCCCCS(=O)(=O)c1nnc(C(N)=O)s1 [5-hexylsulfonyl-1,3,4-thiadiazole-2-carboxamide] | 15
CCCCCS(=O)(=O)c1nnc(C#N)s1 [5-pentylsulfonyl-1,3,4-thiadiazole-2-carbonitrile] | 19

Same assay, conditions: 100 mg/l soil; 18 days

SMILES | root evaluation (1-4)
CCCCCCS(=O)(=O)c1nnc(C#N)s1 [5-hexylsulfonyl-1,3,4-thiadiazole-2-carbonitrile] | 4
CCCCCCS(=O)(=O)c1nnc(C(N)=O)s1 [5-hexylsulfonyl-1,3,4-thiadiazole-2-carboxamide] | 3
CCCCCS(=O)(=O)c1nnc(C#N)s1 [5-pentylsulfonyl-1,3,4-thiadiazole-2-carbonitrile] | 4

Each compound was assayed on Pythium ultimum (assay: Threshold concentration test for use of the compounds against Pythium ultimum (infested soil, garden peas)). Settings: 20 mg/l soil; 3 weeks.
Assay type: in vivo
Design: key to root evaluation (1-4): 4: white roots without fungous necrosis; 3: white roots, minor fungous necrosis; 2: brown roots, already more pronounced fungous necrosis; 1: heavy fungous necrosis, roots rotted
Procedure, shortened: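 Pulverulent agents at 20% concentration mixed evenly into soil heavily infested with Pythium ultimum, then garden peas ('Wunder von Kelvedon', 20 per dish) sown at once. After three weeks at 20–24 °C in a hothouse, sound peas counted and roots scored on a 1–4 scale.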

SMILES | root evaluation (1-4)
CCNC(=O)c1nnc([S+](C)[O-])s1 (centres unmarked) [5-methylsulfinyl-1,3,4-thiadiazole-2-carboxylic acid-ethylamide] | 2

Same assay, conditions: 20 mg/l soil; 20 grains per dish; 3 weeks at 20-24° C.

SMILES | number of sound peas
CCNC(=O)c1nnc([S+](C)[O-])s1 (centres unmarked) [5-methylsulfinyl-1,3,4-thiadiazole-2-carboxylic acid-ethylamide] | 18

Same assay, conditions: 40 mg/l soil; 3 weeks

SMILES | root evaluation (1-4)
CCNC(=O)c1nnc([S+](C)[O-])s1 (centres unmarked) [5-methylsulfinyl-1,3,4-thiadiazole-2-carboxylic acid-ethylamide] | 4

Same assay, conditions: 40 mg/l soil; 20 grains per dish; 3 weeks at 20-24° C.

SMILES | number of sound peas
CCNC(=O)c1nnc([S+](C)[O-])s1 (centres unmarked) [5-methylsulfinyl-1,3,4-thiadiazole-2-carboxylic acid-ethylamide] | 18

Same assay, conditions: 80 mg/l soil; 3 weeks

SMILES | root evaluation (1-4)
CCNC(=O)c1nnc([S+](C)[O-])s1 (centres unmarked) [5-methylsulfinyl-1,3,4-thiadiazole-2-carboxylic acid-ethylamide] | 4

Same assay, conditions: 80 mg/l soil; 20 grains per dish; 3 weeks at 20-24° C.

SMILES | number of sound peas
CCNC(=O)c1nnc([S+](C)[O-])s1 (centres unmarked) [5-methylsulfinyl-1,3,4-thiadiazole-2-carboxylic acid-ethylamide] | 19

Each compound was assayed on Tilletia caries (assay: Treatment of oat seeds infested with Tilletia caries (spore germination)). Settings: 20 g active agent per 100 kg.
Assay type: in vivo

SMILES | % activity [%]
CCNC(=O)c1nnc([S+](C)[O-])s1 (centres unmarked) [5-methylsulfinyl-1,3,4-thiadiazole-2-carboxylic acid-ethylamide] | 100

Same assay, conditions: 50 g active agent per 100 kg

SMILES | % activity [%]
CCCCCCS(=O)(=O)c1nnc(C#N)s1 [5-hexylsulfonyl-1,3,4-thiadiazole-2-carbonitrile] | 90
CCCCCCS(=O)(=O)c1nnc(C(N)=O)s1 [5-hexylsulfonyl-1,3,4-thiadiazole-2-carboxamide] | 98
CCNC(=O)c1nnc([S+](C)[O-])s1 (centres unmarked) [5-methylsulfinyl-1,3,4-thiadiazole-2-carboxylic acid-ethylamide] | 100
CCCCCS(=O)(=O)c1nnc(C#N)s1 [5-pentylsulfonyl-1,3,4-thiadiazole-2-carbonitrile] | 90

What follows are compounds tested on Botrytis cinerea (assay: Prophylactic leaf treatment of tomato plants against Botrytis cinerea). Settings: concentration of 0.025 of the active agent (unit not given).
Assay type: in vivo

SMILES | % activity [%]
CCCCCCS(=O)(=O)c1nnc(C#N)s1 [5-hexylsulfonyl-1,3,4-thiadiazole-2-carbonitrile] | 86
CCCCCCS(=O)(=O)c1nnc(C(N)=O)s1 [5-hexylsulfonyl-1,3,4-thiadiazole-2-carboxamide] | 87
CCNC(=O)c1nnc([S+](C)[O-])s1 (centres unmarked) [5-methylsulfinyl-1,3,4-thiadiazole-2-carboxylic acid-ethylamide] | 75
CCCCCS(=O)(=O)c1nnc(C#N)s1 [5-pentylsulfonyl-1,3,4-thiadiazole-2-carbonitrile] | 86
